Drawing on patent publication US20230144824A1, “1H-PYRAZOLO[4,3-d]PYRIMIDINE COMPOUNDS AS TOLL-LIKE RECEPTOR 7 (TLR7) AGONISTS” (BRISTOL-MYERS SQUIBB COMPANY, priority 2020, published 2023), this text covers EC50 for 17 compounds.

Experiment [1] deals with T1, human TLR7 (Homo sapiens, UniProt Q9NYK1).
T1 construct: host or cells: HEK-Blue TLR7 cells (engineered human embryonic kidney cells)
T1 sequence (Q9NYK1 27-1049): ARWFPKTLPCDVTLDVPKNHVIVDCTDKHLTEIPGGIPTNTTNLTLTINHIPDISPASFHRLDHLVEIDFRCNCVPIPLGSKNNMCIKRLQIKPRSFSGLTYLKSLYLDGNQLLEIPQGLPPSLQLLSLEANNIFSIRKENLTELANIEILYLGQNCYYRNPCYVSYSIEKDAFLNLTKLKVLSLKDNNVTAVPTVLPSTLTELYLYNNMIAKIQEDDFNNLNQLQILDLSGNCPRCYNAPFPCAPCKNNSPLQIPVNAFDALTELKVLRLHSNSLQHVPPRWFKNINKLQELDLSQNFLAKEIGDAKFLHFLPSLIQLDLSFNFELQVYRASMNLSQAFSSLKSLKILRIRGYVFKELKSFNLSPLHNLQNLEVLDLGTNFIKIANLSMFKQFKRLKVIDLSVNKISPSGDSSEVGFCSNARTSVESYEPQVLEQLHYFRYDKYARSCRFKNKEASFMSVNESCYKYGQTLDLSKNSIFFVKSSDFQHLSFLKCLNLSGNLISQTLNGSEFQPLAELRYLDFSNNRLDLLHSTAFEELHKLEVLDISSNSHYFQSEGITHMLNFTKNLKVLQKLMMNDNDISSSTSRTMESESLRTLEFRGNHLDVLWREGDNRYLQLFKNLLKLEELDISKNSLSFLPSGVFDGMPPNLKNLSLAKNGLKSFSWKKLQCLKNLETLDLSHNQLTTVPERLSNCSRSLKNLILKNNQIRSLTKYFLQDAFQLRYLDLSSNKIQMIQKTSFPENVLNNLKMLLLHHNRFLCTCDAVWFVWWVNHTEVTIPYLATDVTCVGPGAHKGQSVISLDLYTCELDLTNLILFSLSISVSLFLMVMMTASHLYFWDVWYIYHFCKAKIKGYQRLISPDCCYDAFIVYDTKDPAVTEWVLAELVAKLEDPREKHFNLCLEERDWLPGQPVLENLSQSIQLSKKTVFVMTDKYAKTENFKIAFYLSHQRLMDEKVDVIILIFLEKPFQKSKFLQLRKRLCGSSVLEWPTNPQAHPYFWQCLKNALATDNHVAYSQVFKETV
Description: Human TLR7 agonist activity assay (HEK-Blue TLR7 SEAP reporter). To be noted: HEK-Blue TLR7 cells, 18 h treatment, average where assay performed multiple times, read-out: hTLR7 Agonism EC50. Format: cell-based. On the procedure: This procedure describes a method for assaying human TLR7 (hTLR7) agonist activity of the compounds disclosed in this specification.
HEK-Blue™ TLR7 cells were added to each well of a 384-well tissue-culture plate (15,000 cells per well) and incubated 16-18 h at 37° C., 5% CO2. Compounds (100 nl) were dispensed into wells containing the HEK-Blue™ TLR cells and the treated cells were incubated at 37° C., 5% CO2. After 18 h treatment ten microliters of freshly-prepared Quanti-Blue™ reagent (Invivogen) was added to each well, incubated for 30 min (37° C., 5% CO2) and SEAP levels measured using an Envision plate reader (OD=620 nm). The half maximal effective concentration values (EC50; compound concentration which induced a response halfway between the assay baseline and maximum) were calculated.

The subject of experiment [2] is CD69. Description: Induction of CD69 in human whole blood. Format: cell-based. The following applies: Homo sapiens, 17 h, 100% set to 1 uM of resiquimod, average where assay performed multiple times, read-out: hWB CD69 EC50. On the procedure:
The induction of Type I interferon (IFN) MX-1 genes and the B-cell activation marker CD69 are downstream events that occur upon activation of the TLR7 pathway. The following is a human whole blood assay that measures their induction in response to a TLR7 agonist.
Heparinized human whole blood was harvested from human subjects and treated with test TLR7 agonist compounds at 1 mM. The blood was diluted with RPMI 1640 media and Echo was used to predot 10 nL per well giving a final concentration of 1 uM (10 nL in 10 uL of blood). After mixing on a shaker for 30 sec, the plates were covered and placed in a 37° C. chamber for o/n=17 hrs. Fixing/lysis buffer was prepared (5×->1× in H2O, warm at 37° C.; Cat #BD 558049) and kept the perm buffer (on ice) for later use.
For surface markers staining (CD69): prepared surface Abs: 0.045 ul hCD14-FITC (ThermoFisher Cat #MHCD1401)+0.6 ul hCD19-ef450 (ThermoFisher Cat #48-0198-42)+1.5 ul hCD69-PE (cat #BD555531)+0.855 ul FACS buffer. Added 3 ul/well, spin1000 rpm for 1 min and mixed on shaker for 30 sec, put on ice for 30 mins. Stop stimulation after 30 minutes with 70 uL of prewarmed 1× fix/lysis buffer and use Feliex mate to resuspend (15 times, change tips for each plate) and incubate at 37 C for 10 minutes.
Centrifuge at 2000 rpm for 5 minutes aspirate with HCS plate washer, mix on shaker for 30 sec and then wash with 70 uL in dPBS and pelleted 2×s (2000 rpm for 5 min) and 50 ul wash in FACS buffer pelleted 1×s (2000 rpm for 5 min). Mix on shaker for 30 sec. For Intracellular markers staining (MX-1): Add 50 ul of BD Perm buffer III and mix on shaker for 30 sec. Incubate on ice for 30 minutes (in the dark). Wash with 50 uL of FACS buffer 2×(spin @2300 rpm×5 min after perm) followed by mixing on shaker for 30 sec. Resuspended in 20 ul of FACS buffer containing MX1 antibody ( )(4812)-Alexa 647: Novus Biologicals #NBP2-43704AF647) 20 ul FACS bf+0.8 ul hIgG+0.04 ul MX-1. Spin 1000 rpm for 1 min, mix on shaker for 30 se and the samples were incubated at RT in the dark for 45 minutes followed by washing 2×FACS buffer (spin @2300 rpm×5 min after perm). Resuspend 20 ul (35 uL total per well) of FACS buffer and cover with foil and place in 4° C. to read the following day. Plates were read on iQuePlus. The results were loaded into toolset and IC50 curves are generated in curve master. The y-axis 100% is set to 1 uM of resiquimod.

A word on the EC50: it is the concentration that produces a half-maximal response.

As to `CCC[C@@H](CCO)Nc1nc(N)nc2cnn(Cc3ncc(C4CCCCCN4)cc3OC)c12` (mixture of isomers) [Compound 183, (3S)-3-[(5-amino-1-{[5-(azepan-2-yl)-3-methoxypyridin-2-yl]methyl}-1H-pyrazolo[4,3-d]pyrimidin-7-yl)amino]hexan-1-ol], the figures for the EC50 in experiment [1] and in experiment [2] were 89.9 nM and 2.8 nM, respectively.

As to `CCC[C@@H](CCO)Nc1nc(N)nc2cnn(Cc3ncc(C4C[C@@H](C#N)CN4)cc3OC)c12` (mixture of isomers) [Compound 185, (3R)-5-{6-[(5-amino-7-{[(3S)-1-hydroxyhexan-3-yl]amino}-1H-pyrazolo[4,3-d]pyrimidin-1-yl)methyl]-5-methoxypyridin-3-yl}pyrrolidine-3-carbonitrile], the results for the EC50 in experiment [1] and in experiment [2] were 399 nM and 27.8 nM, respectively.

As for `CCCCNc1nc(N)nc2cnn(Cc3ncc(C4CCNCC4)cc3OC)c12` [Compound 101, N7-butyl-1-{[3-methoxy-5-(piperidin-4-yl)pyridin-2-yl]methyl}-1H-pyrazolo[4,3-d]pyrimidine-5,7-diamine], the EC50 in experiment [1] came to 56.6 nM; in experiment [2], 9.3 nM.

As for `CCCCNc1nc(N)nc2cnn(Cc3ncc(C4CCN(C5COC5)CC4)cc3OC)c12` [Compound 102, N7-butyl-1-({3-methoxy-5-[1-(oxetan-3-yl)piperidin-4-yl]pyridin-2-yl}methyl)-1H-pyrazolo[4,3-d]pyrimidine-5,7-diamine], the half-maximal effective concentration (EC50) in experiment [1] is 120 nM; in experiment [2], 87.8 nM.

As for `CCCCNc1nc(N)nc2cnn(Cc3ncc(C4CCN(S(C)(=O)=O)CC4)cc3OC)c12` [Compound 103, N7-butyl-1-{[5-(1-methanesulfonylpiperidin-4-yl)-3-methoxypyridin-2-yl]methyl}-1H-pyrazolo[4,3-d]pyrimidine-5,7-diamine], the EC50 in experiment [1] is 204 nM; in experiment [2], 562 nM.

Consider `CCCCNc1nc(N)nc2cnn(Cc3ncc(C4CCN(C(=O)CCOC)CC4)cc3OC)c12` [Compound 104, 1-[4-(6-{[5-amino-7-(butylamino)-1H-pyrazolo[4,3-d]pyrimidin-1-yl]methyl}-5-methoxypyridin-3-yl)piperidin-1-yl]-3-methoxypropan-1-one], for which the EC50 in experiment [1] stood at 445 nM; in experiment [2], 213 nM.

Regarding `CCCCNc1nc(N)nc2cnn(Cc3ncc(C4CCN(C(=O)CCO)CC4)cc3OC)c12` [Compound 105, 1-[4-(6-{[5-amino-7-(butylamino)-1H-pyrazolo[4,3-d]pyrimidin-1-yl]methyl}-5-methoxypyridin-3-yl)piperidin-1-yl]-3-hydroxypropan-1-one], the figures for the concentration giving a half-maximal response (EC50) in experiment [1] and in experiment [2] were 817 nM and 159 nM, respectively.

On to `CCCCNc1nc(N)nc2c(C)nn(Cc3ncc(C4CCNCC4)cc3OC)c12` [Compound 106, N7-butyl-1-{[3-methoxy-5-(piperidin-4-yl)pyridin-2-yl]methyl}-3-methyl-1H-pyrazolo[4,3-d]pyrimidine-5,7-diamine], for which the 50% effective concentration (EC50) in experiment [1] turned out to be 549 nM; in experiment [2] it was 150 nM.

On to `CCCCNc1nc(N)nc2c(C3CC3)nn(Cc3ncc(C4CCN(C)CC4)cc3OC)c12` [Compound 107, N7-butyl-3-cyclopropyl-1-{[3-methoxy-5-(1-methylpiperidin-4-yl)pyridin-2-yl]methyl}-1H-pyrazolo[4,3-d]pyrimidine-5,7-diamine], for which the EC50 was 383 nM in experiment [1] and 444 nM in experiment [2].

Regarding `CCCCNc1nc(N)nc2cnn(Cc3ncc(C4CCN(C5CCC5)CC4)cc3OC)c12` [Compound 108, N7-butyl-1-{[5-(1-cyclobutylpiperidin-4-yl)-3-methoxypyridin-2-yl]methyl}-1H-pyrazolo[4,3-d]pyrimidine-5,7-diamine], the EC50 in experiment [1] was 51.9 nM; in experiment [2] it was 4.8 nM.

Take `CCC[C@@H](CCO)Nc1nc(N)nc2cnn(Cc3ccc(C4CCN(C5CCOCC5)CC4)nc3)c12` [Compound 216, (3S)-3-{[5-amino-1-({6-[1-(oxan-4-yl)piperidin-4-yl]pyridin-3-yl}methyl)-1H-pyrazolo[4,3-d]pyrimidin-7-yl]amino}hexan-1-ol]: the concentration for a half-maximal effect (EC50) in experiment [1] was determined as 1540 nM.

Take `CCCCNc1nc(N)nc2cnn(Cc3ncc(C4CCN(Cc5ncn(C)n5)CC4)cc3OC)c12` [Compound 217, N7-butyl-1-[(3-methoxy-5-{1-[(1-methyl-1H-1,2,4-triazol-3-yl)methyl]piperidin-4-yl}pyridin-2-yl)methyl]-1H-pyrazolo[4,3-d]pyrimidine-5,7-diamine]: the EC50 in experiment [1] was 80.1 nM.

In the case of `CCCCNc1nc(N)nc2cnn(Cc3ncc(C4CCN(CC5CCOCC5)CC4)cc3OC)c12` [Compound 218, N7-butyl-1-[(3-methoxy-5-{1-[(oxan-4-yl)methyl]piperidin-4-yl}pyridin-2-yl)methyl]-1H-pyrazolo[4,3-d]pyrimidine-5,7-diamine], the concentration for a half-maximal effect (EC50) in experiment [1] amounted to 25.9 nM.

In the case of `CCCCNc1nc(N)nc2cnn(Cc3cnc(C4CCN(C5CCOCC5)CC4)cc3OC)c12` [Compound 219, N7-butyl-1-({4-methoxy-6-[1-(oxan-4-yl)piperidin-4-yl]pyridin-3-yl}methyl)-1H-pyrazolo[4,3-d]pyrimidine-5,7-diamine], the EC50 in experiment [1] amounted to 21.9 nM.

In the case of `CCC[C@@H](CCO)Nc1nc(N)nc2c(C)nn(Cc3cnc(C4CCN(CC#N)CC4)cc3OC)c12` [Compound 220, 2-(4-{5-[(5-amino-7-{[(3S)-1-hydroxyhexan-3-yl]amino}-3-methyl-1H-pyrazolo[4,3-d]pyrimidin-1-yl)methyl]-4-methoxypyridin-2-yl}piperidin-1-yl)acetonitrile], in experiment [1], the EC50 was 436 nM.

Take `CCC[C@@H](CCO)Nc1nc(N)nc2c(C)nn(Cc3cnc(C4CCNCC4)cc3OC)c12` [Compound 221, (3S)-3-[(5-amino-1-{[4-methoxy-6-(piperidin-4-yl)pyridin-3-yl]methyl}-3-methyl-1H-pyrazolo[4,3-d]pyrimidin-7-yl)amino]hexan-1-ol]: the EC50 in experiment [1] stood at 57.1 nM.

Consider `CCC[C@@H](CCO)Nc1nc(N)nc2c(C)nn(Cc3cnc(C4CCN(C5CCOCC5)CC4)cc3OC)c12` [Compound 222, (3S)-3-{[5-amino-1-({4-methoxy-6-[1-(oxan-4-yl)piperidin-4-yl]pyridin-3-yl}methyl)-3-methyl-1H-pyrazolo[4,3-d]pyrimidin-7-yl]amino}hexan-1-ol], for which the EC50 in experiment [1] was found to be 170 nM.
